Assay: xn = mol fraction of the nth substance listed
Settings: 101 kPa

CCNc1ccccc1 + COc1ccccc1
viscosity [mPa·s]
Settings	293.15 K	298.15 K	303.15 K	308.15 K	313.15 K	318.15 K	323.15 K
x1 = 0.0504	1.109	1.026	0.948	0.881	0.807	0.764	0.709
x1 = 0.1074	1.15	1.059	0.977	0.907	0.83	0.784	0.727
x1 = 0.1541	1.193	1.095	1.009	0.935	0.855	0.805	0.746
x1 = 0.2094	1.234	1.13	1.039	0.961	0.878	0.825	0.763
x1 = 0.2506	1.275	1.164	1.067	0.985	0.9	0.844	0.78
x1 = 0.3006	1.318	1.2	1.098	1.012	0.924	0.864	0.798
x1 = 0.3502	1.364	1.237	1.13	1.04	0.949	0.885	0.816
x1 = 0.4029	1.416	1.279	1.166	1.071	0.976	0.908	0.837
x1 = 0.4504	1.466	1.32	1.201	1.1	1.002	0.931	0.857
x1 = 0.499	1.519	1.363	1.24	1.133	1.031	0.955	0.878
x1 = 0.5504	1.58	1.412	1.281	1.169	1.063	0.981	0.902
x1 = 0.5911	1.64	1.461	1.322	1.204	1.094	1.007	0.924
x1 = 0.6505	1.711	1.517	1.371	1.245	1.131	1.038	0.951
x1 = 0.7027	1.783	1.578	1.421	1.288	1.167	1.069	0.978
x1 = 0.7493	1.853	1.635	1.47	1.331	1.203	1.098	1.004
x1 = 0.7972	1.936	1.699	1.523	1.375	1.242	1.131	1.032
x1 = 0.8509	2.024	1.766	1.578	1.421	1.283	1.164	1.06
x1 = 0.8913	2.103	1.831	1.632	1.466	1.322	1.196	1.087
x1 = 0.9501	2.191	1.9	1.688	1.514	1.363	1.23	1.116

— the CheMixHub viscosity set
